Laboratory results taken from patent publication US12185723B2, “Herbicidally active 3-phenylisoxazoline-5-carboxamides of s-containing cyclopentenylcarboxylic esters” (Bayer Aktiengesellschaft, priority 2019, dated 2025).

Legend:
Format in all cases: in vivo
Polygonum convolvulus = assay: Post-emergence herbicidal action against POLCO
Method in brief: (§1)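 Greenhouse pot test in sandy loam; plants sprayed at the one-leaf stage (2–3 weeks after sowing) with WP or EC formulations in water plus 0.5% additive at 600 l/ha. Activity rated visually about 3 weeks later against untreated controls (0% = like control, 100% = plants dead).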

Abutilon theophrasti = assay: Post-emergence herbicidal action against ABUTH; conditions: 80 g a.i./ha, visual rating about 3 weeks after treatment
Method in brief: as §1

DIGSA = assay: Post-emergence herbicidal action against DIGSA; conditions: visual rating about 3 weeks after treatment
Method in brief: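 Greenhouse-grown plants sprayed at one-leaf stage (2–3 weeks after sowing) with WP or EC formulations as aqueous suspension/emulsion plus 0.5% additive, 600 l/ha water. Activity rated visually about 3 weeks later versus untreated controls, 100% = plants dead, 0% = like controls.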

Stellaria media = assay: Post-emergence herbicidal action against STEME
Description: (§2) Post-Emergence Herbicidal Action Against Harmful Plants and Crop Plant Compatibility Seeds of monocotyledonous and dicotyledonous weeds and crop plants are placed in sandy loam in plastic or wood-fibre pots, covered with soil and cultivated in a greenhouse under controlled growth conditions. 2 to 3 weeks after sowing, the test plants are treated at the one-leaf stage. The compounds of the invention, formulated in the form of wettable powders (WP) or as emulsion concentrates (EC), are then sprayed onto the green parts of the plants as aqueous suspension or emulsion with addition of 0.5% additive at a water application rate of 600 l/ha (converted). After the test plants have been kept in the greenhouse under optimum growth conditions for about 3 weeks, the activity of the preparations is rated visually in comparison to untreated controls. For example, 100% activity=the plants have died, 0% activity=like control plants. [table]

Veronica persica = assay: Post-emergence herbicidal action against VERPE
Method in brief: as §1

Alopecurus myosuroides = assay: Post-emergence herbicidal action against ALOMY; conditions: visual rating about 3 weeks after treatment
Method in brief: as §1

Pharbitis purpurea = assay: Post-emergence herbicidal action against PHBPU
Method in brief: as §1

Viola tricolor = assay: Post-emergence herbicidal action against VIOTR
Description: as §2

Lolium rigidum = assay: Post-emergence herbicidal action against LOLRI; conditions: visual rating about 3 weeks after treatment
Method in brief: as §1

Amaranthus retroflexus = assay: Post-emergence herbicidal action against AMARE
Method in brief: as §1

Hordeum murinum = assay: Post-emergence herbicidal action against HORMU
Description: as §2

Avena fatua = assay: Post-emergence herbicidal action against AVEFA; conditions: visual rating about 3 weeks after treatment
Method in brief: as §1

Echinochloa crus-galli = assay: Post-emergence herbicidal action against ECHCG; conditions: visual rating about 3 weeks after treatment
Method in brief: as §1

Setaria viridis = assay: Post-emergence herbicidal action against SETVI; conditions: visual rating about 3 weeks after treatment
Method in brief: as §1

Matricaria inodora = assay: Post-emergence herbicidal action against MATIN; conditions: 80 g a.i./ha, visual rating about 3 weeks after treatment
Description: as §2

[1] = 80 g a.i./ha, visual rating about 3 weeks after treatment

Row | SMILES | Herbicidal action against [%] POLCO (Polygonum convolvulus; 20 g a.i./ha) [%] | Herbicidal action against [%] POLCO (Polygonum convolvulus; 80 g a.i./ha) [%] | Herbicidal action against [%] DIGSA (DIGSA; 20 g a.i./ha) [%] | Herbicidal action against [%] DIGSA (DIGSA; 80 g a.i./ha) [%] | Herbicidal action against [%] STEME (Stellaria media; 20 g a.i./ha) [%] | Herbicidal action against [%] STEME (Stellaria media; 80 g a.i./ha) [%] | Herbicidal action against [%] VERPE (Veronica persica; 80 g a.i./ha) [%] | Herbicidal action against [%] ALOMY (Alopecurus myosuroides; 80 g a.i./ha) [%] | Herbicidal action against [%] PHBPU (Pharbitis purpurea; 80 g a.i./ha) [%] | Herbicidal action against [%] VIOTR (Viola tricolor; 20 g a.i./ha) [%] | Herbicidal action against [%] LOLRI (Lolium rigidum; 80 g a.i./ha) [%] | Herbicidal action against [%] AMARE (Amaranthus retroflexus; [1]) [%] | Herbicidal action against [%] HORMU (Hordeum murinum; 80 g a.i./ha) [%] | Herbicidal action against [%] AVEFA (Avena fatua; 20 g a.i./ha) [%] | Herbicidal action against [%] AVEFA (Avena fatua; 80 g a.i./ha) [%] | Herbicidal action against [%] ECHCG (Echinochloa crus-galli; 80 g a.i./ha) [%] | Herbicidal action against [%] SETVI (Setaria viridis; 80 g a.i./ha) [%] | Herbicidal action against [%] VERPE (Veronica persica; 20 g a.i./ha) [%] | Herbicidal action against [%] LOLRI (Lolium rigidum; 20 g a.i./ha) [%] | Herbicidal action against [%] SETVI (Setaria viridis; 20 g a.i./ha) [%] | further results
1 | C=CC1(C(=O)NC2CC=C(C(=O)OCCSC)C2)CC(c2cc(F)cc(F)c2)=NO1 (stereo not shown) [Example I-50] | 80 | 90 | 90 | 90 | 80 | 90 | 90 | 100 | 90 | 80 | 100 | 90 | 100 | 90 | 100 | 90 | 90 |  |  |  | Herbicidal action against [%] ABUTH (Abutilon theophrasti): 80%; Herbicidal action against [%] PHBPU (Pharbitis purpurea; 20 g a.i./ha): 90%; Herbicidal action against [%] VIOTR (Viola tricolor; 80 g a.i./ha): 90%; Herbicidal action against [%] AMARE (Amaranthus retroflexus; 20 g a.i./ha): 90%; Herbicidal action against [%] HORMU (Hordeum murinum; 20 g a.i./ha): 100%
2 | COC1(C(=O)NC2C=CC(C(=O)OCCSC)C2)CC(c2cccc(F)c2)=NO1 (mixture of isomers) [Example I-36] |  |  |  |  | 80 | 80 | 80 | 80 | 80 | 80 |  |  |  |  | 80 |  |  | 80 |  |  | Herbicidal action against [%] ABUTH (Abutilon theophrasti): 80%; Herbicidal action against [%] PHBPU (Pharbitis purpurea; 20 g a.i./ha): 80%; Herbicidal action against [%] MATIN (Matricaria inodora): 80%
3 | CSCCOC(=O)C1C=CC(NC(=O)C2(C(F)(F)F)CC(c3cc(F)cc(C#N)c3)=NO2)C1 (mixture of isomers) [Example I-37] | 80 | 80 | 80 | 90 | 80 | 80 | 90 | 90 | 80 | 80 | 90 | 80 | 80 | 90 | 90 | 80 | 80 | 80 | 90 | 80 | Herbicidal action against [%] ALOMY (Alopecurus myosuroides; 20 g a.i./ha): 90%; Herbicidal action against [%] AMARE (Amaranthus retroflexus; 20 g a.i./ha): 80%; Herbicidal action against [%] HORMU (Hordeum murinum; 20 g a.i./ha): 80%
4 | C=CC1(C(=O)NC2C=CC(C(=O)OCCSC)C2)CC(c2cc(C)cc(F)c2)=NO1 (mixture of isomers) [Example I-47] |  |  | 80 | 90 | 90 | 90 | 80 | 90 |  | 90 | 80 | 100 | 80 | 80 | 90 | 80 | 80 | 80 | 80 | 80 | Herbicidal action against [%] ALOMY (Alopecurus myosuroides; 20 g a.i./ha): 90%; Herbicidal action against [%] MATIN (Matricaria inodora): 80%
5 | CSCCOC(=O)C1C=CC(NC(=O)C2(C)CC(c3cccc(F)c3)=NO2)C1 (stereo not shown) [Example I-34] | 80 | 90 | 80 | 80 | 90 | 90 | 90 | 100 | 90 | 90 | 100 |  | 80 | 90 | 90 | 80 | 80 | 90 | 100 | 80 | Herbicidal action against [%] ABUTH (Abutilon theophrasti): 80%; Herbicidal action against [%] ALOMY (Alopecurus myosuroides; 20 g a.i./ha): 100%; Herbicidal action against [%] PHBPU (Pharbitis purpurea; 20 g a.i./ha): 90%; Herbicidal action against [%] VIOTR (Viola tricolor; 80 g a.i./ha): 80%; Herbicidal action against [%] HORMU (Hordeum murinum; 20 g a.i./ha): 80%; Herbicidal action against [%] ECHCG (Echinochloa crus-galli; 20 g a.i./ha): 80%
6 | CSCCOC(=O)C1C=CC(NC(=O)C2(C)CC(c3cc(C#N)cc(C#N)c3)=NO2)C1 (mixture of isomers) [Example I-46] | 80 | 90 | 90 | 90 | 90 | 90 | 90 | 90 | 80 | 90 | 90 | 90 | 90 | 90 | 90 | 80 | 90 | 80 | 90 | 90 | Herbicidal action against [%] ALOMY (Alopecurus myosuroides; 20 g a.i./ha): 90%; Herbicidal action against [%] VIOTR (Viola tricolor; 80 g a.i./ha): 80%; Herbicidal action against [%] HORMU (Hordeum murinum; 20 g a.i./ha): 90%
7 | C=CC1(C(=O)NC2C=CC(C(=O)OCCSC)C2)CC(c2ccccc2)=NO1 (mixture of isomers) [Example I-48] |  |  | 80 | 90 | 90 | 90 | 90 | 100 | 80 | 90 | 90 |  | 80 |  | 90 | 80 | 80 | 80 | 80 | 80 | 
